These results are taken from patent publication US20240117269A1, “NOVEL AROMATIC MONOTHIOKETALS AS FRAGRANCE COMPOUNDS” (SYMRISE AG, priority 2019, published 2024).

A short description of this assay: Odor detection threshold (ODT), dynamic olfactometer TO8, expert group, EN 13725. Particulars: in air. The procedure: The odor perception threshold, i.e. the ODT value (“odor detection threshold”), was determined using a dynamic olfactometer designated TO8 and a group of experts in accordance with the EN 13725 standard, in which an odorous air sample is diluted with clean air. The dilution is presented to the test persons (testers) for evaluation. The odor description was carried out by a group of experts comprising 10 members.

On to `c1ccc2c(c1)COCS2` [4H-3,1-benzoxathiin], for which the ODT value was found to be 43.6 ng/L.
In turn, `CC1OCc2ccccc2S1` (centres unmarked) [2-methyl-4H-3,1-benzoxathiin] returned an ODT value of 3.6 ng/L.
